{"source": "ChEMBL document CHEMBL6096630", "about": "“Enhancing therapeutic efficacy in homologous recombination-proficient pancreatic cancer via the combination of PARP1-PROTAC and a BRD4 inhibitor” (Bioorg Med Chem, 2024)", "key": {"[1]": {"experiment": "Toxicity in BALB/c mouse xenografted with human PANC-1 cells assessed as body weight loss at 40 mg/kg, ip for 4 weeks administered for 5 days consecutively and 2 days without treatment on every week", "type": "organism-based", "settings": "in vivo, 672 h"}, "[2]": {"system": "PANC-1", "experiment": "Induction of apoptosis in human PANC-1 cells assessed as viable cells at 2.5 uM incubated for 48 hrs by Annexin V-FITC/PI staining based flow cytometry (reference value: 91.64 %)", "type": "functional", "settings": "read-out: Activity"}, "[3]": {"system": "PANC-1", "experiment": "Induction of DNA damage in human PANC-1 cells assessed as increase in gamma-H2AX level at 0.6 to 10 uM incubated for 48 hrs by Western blot analysis", "type": "functional, cell-based", "settings": "dose 0.6-10 µM"}, "[4]": {"system": "PANC-1", "experiment": "Induction of apoptosis in human PANC-1 cells assessed as late apoptotic cells at 0.6 uM incubated for 48 hrs by Annexin V-FITC/PI staining based flow cytometry (reference value: 3.87 %)", "type": "functional"}, "[5]": {"system": "PANC-1", "experiment": "Antitumor activity against human PANC-1 cells xenografted in BALB/c mouse assessed as inhibition of tumor volume at 40 mg/kg, ip for 4 weeks administered for 5 days consecutively and 2 days without treatment on every week in presence of JQ1", "type": "functional, organism-based"}, "[6]": {"system": "PANC-1", "experiment": "Induction of cell cycle arrest in human PANC-1 cells assessed as accumulation at G2 phase at 5 uM incubated for 24 hrs by PI staining based flow cytometry (reference value: 9.36 %)", "type": "functional"}, "[7]": {"system": "PANC-1", "experiment": "Induction of cell cycle arrest in human PANC-1 cells assessed as accumulation at S phase at 0.6 uM incubated for 24 hrs by PI staining based flow cytometry (reference value: 38.94 %)", "type": "functional"}, "[8]": {"target": "Protein cereblon/Poly [ADP-ribose] polymerase 1 (Homo sapiens, UniProt P09874+Q96SW2)", "sequence (P09874 2-1014 limits assumed)": "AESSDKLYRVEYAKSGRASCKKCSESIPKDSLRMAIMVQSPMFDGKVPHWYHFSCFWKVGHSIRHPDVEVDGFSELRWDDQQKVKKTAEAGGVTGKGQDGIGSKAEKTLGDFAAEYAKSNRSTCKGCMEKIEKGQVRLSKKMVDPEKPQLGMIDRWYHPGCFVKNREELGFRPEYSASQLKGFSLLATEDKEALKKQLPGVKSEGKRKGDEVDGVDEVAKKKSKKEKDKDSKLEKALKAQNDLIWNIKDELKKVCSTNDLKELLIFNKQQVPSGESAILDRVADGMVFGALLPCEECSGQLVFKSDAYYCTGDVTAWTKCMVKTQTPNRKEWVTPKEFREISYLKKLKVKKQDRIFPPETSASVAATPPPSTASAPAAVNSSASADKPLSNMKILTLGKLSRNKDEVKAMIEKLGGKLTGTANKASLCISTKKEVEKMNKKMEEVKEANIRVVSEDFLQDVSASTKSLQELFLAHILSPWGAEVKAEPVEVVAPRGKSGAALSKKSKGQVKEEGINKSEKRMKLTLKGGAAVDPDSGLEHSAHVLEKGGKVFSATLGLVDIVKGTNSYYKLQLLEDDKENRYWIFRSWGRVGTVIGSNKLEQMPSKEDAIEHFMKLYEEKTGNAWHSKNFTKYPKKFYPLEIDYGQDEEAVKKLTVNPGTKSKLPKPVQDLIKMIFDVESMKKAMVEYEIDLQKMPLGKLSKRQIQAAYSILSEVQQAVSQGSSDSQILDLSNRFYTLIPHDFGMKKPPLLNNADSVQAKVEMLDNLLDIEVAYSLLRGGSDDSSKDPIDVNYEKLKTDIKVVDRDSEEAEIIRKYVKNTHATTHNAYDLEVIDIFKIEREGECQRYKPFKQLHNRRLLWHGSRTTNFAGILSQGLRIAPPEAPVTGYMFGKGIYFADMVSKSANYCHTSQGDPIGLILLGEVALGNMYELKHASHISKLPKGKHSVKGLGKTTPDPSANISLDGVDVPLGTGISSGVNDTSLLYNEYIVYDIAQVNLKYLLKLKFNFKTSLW", "sequence (Q96SW2 whole entry partner)": "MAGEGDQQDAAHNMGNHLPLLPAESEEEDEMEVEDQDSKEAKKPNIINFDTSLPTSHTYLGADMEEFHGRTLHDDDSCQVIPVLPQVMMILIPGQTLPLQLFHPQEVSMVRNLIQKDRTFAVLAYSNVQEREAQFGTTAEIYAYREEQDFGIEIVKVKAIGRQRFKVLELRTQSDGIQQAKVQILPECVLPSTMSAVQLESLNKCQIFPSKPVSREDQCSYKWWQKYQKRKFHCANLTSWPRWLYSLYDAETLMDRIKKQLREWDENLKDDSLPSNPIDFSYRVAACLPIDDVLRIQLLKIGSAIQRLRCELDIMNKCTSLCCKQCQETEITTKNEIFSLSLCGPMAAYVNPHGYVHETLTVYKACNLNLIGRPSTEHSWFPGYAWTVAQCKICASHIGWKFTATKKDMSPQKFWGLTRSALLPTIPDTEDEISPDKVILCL", "experiment": "PROTAC activity at CRBN/PARP1 in human PANC-1 cells assessed as induction of PARP1 degradation incubated for 24 hrs by Western blot analysis relative to control", "type": "cell-based"}, "[9]": {"system": "PANC-1", "experiment": "Induction of cell cycle arrest in human PANC-1 cells assessed as accumulation at S phase at 1.2 uM incubated for 24 hrs by PI staining based flow cytometry (reference value: 38.94 %)", "type": "functional"}, "[10]": {"system": "PANC-1", "experiment": "Induction of DNA damage in human PANC-1 cells assessed as increase in gamma-H2AX level at 2 uM in presence of JQ1 by Western blot analysis", "type": "functional, cell-based"}, "[11]": {"system": "PANC-1", "experiment": "Induction of apoptosis in human PANC-1 cells assessed as necrotic cells at 5 uM incubated for 48 hrs by Annexin V-FITC/PI staining based flow cytometry (reference value: 3.09 %)", "type": "functional"}, "[12]": {"system": "PANC-1", "experiment": "Anti-migration activity in human PANC-1 cells at 2 uM in presence of JQ1 incubated for 24 hrs by wound healing assay", "type": "functional, cell-based"}, "[13]": {"system": "PANC-1", "experiment": "Induction of cell cycle arrest in human PANC-1 cells assessed as accumulation at S phase at 10 uM incubated for 24 hrs by PI staining based flow cytometry (reference value: 38.94 %)", "type": "functional"}, "[14]": {"experiment": "Toxicity in BALB/c mouse xenografted with human PANC-1 cells assessed as pathological changes in lung at 40 mg/kg, ip for 4 weeks administered for 5 days consecutively and 2 days without treatment on every week by H and E staining based analysis", "type": "organism-based", "settings": "in vivo, 672 h"}, "[15]": {"system": "PANC-1", "experiment": "Induction of apoptosis in human PANC-1 cells assessed as early apoptotic cells at 0.6 uM incubated for 48 hrs by Annexin V-FITC/PI staining based flow cytometry (reference value: 1.41 %)", "type": "functional"}, "[16]": {"system": "PANC-1", "experiment": "Antitumor activity against human PANC-1 cells xenografted in BALB/c mouse assessed as reduction in tumor growth at 40 mg/kg, ip for 4 weeks administered for 5 days consecutively and 2 days without treatment on every week", "type": "functional, organism-based"}, "[17]": {"experiment": "Toxicity in BALB/c mouse xenografted with human PANC-1 cells assessed as pathological changes in liver at 40 mg/kg, ip for 4 weeks administered for 5 days consecutively and 2 days without treatment on every week by H and E staining based analysis", "type": "organism-based", "settings": "in vivo, 672 h"}, "[18]": {"system": "PANC-1", "experiment": "Induction of apoptosis in human PANC-1 cells assessed as necrotic cells at 2 uM incubated for 48 hrs in presence of JQ1 by Annexin V-FITC/PI staining based flow cytometry (reference value: 3.09 %)", "type": "functional"}, "[19]": {"target": "Bromodomain-containing protein 4 (Homo sapiens) (UniProt O60885)", "experiment": "Inhibition of BRD4 in human PANC-1 cells at 2 uM incubated for 24 hrs in presence of JQ1 by immunofluorescence based analysis", "type": "cell-based"}, "[20]": {"system": "PANC-1", "experiment": "Induction of cell cycle arrest in human PANC-1 cells assessed as accumulation at S phase at 2.5 uM incubated for 24 hrs by PI staining based flow cytometry (reference value: 38.94 %)", "type": "functional"}, "[21]": {"system": "PANC-1", "experiment": "Induction of cell cycle arrest in human PANC-1 cells assessed as accumulation at G2 phase at 10 uM incubated for 24 hrs by PI staining based flow cytometry (reference value: 9.36 %)", "type": "functional"}, "[22]": {"system": "PANC-1", "experiment": "Synergistic inhibition of colony formation in human PANC-1 cells at 2 uM incubated for 14 days in presence of JQ1 by crystal violet staining based analysis", "type": "functional, cell-based", "settings": "time 14.0 day"}, "[23]": {"system": "PANC-1", "experiment": "Induction of apoptosis in human PANC-1 cells assessed as viable cells at 2 uM incubated for 48 hrs in presence of JQ1 by Annexin V-FITC/PI staining based flow cytometry (reference value: 91.64 %)", "type": "functional", "settings": "read-out: Activity"}, "[24]": {"system": "PANC-1", "experiment": "Induction of apoptosis in human PANC-1 cells assessed as late apoptotic cells at 1.2 uM incubated for 48 hrs by Annexin V-FITC/PI staining based flow cytometry (reference value: 3.87 %)", "type": "functional"}, "[25]": {"experiment": "Toxicity in BALB/c mouse xenografted with human PANC-1 cells assessed as pathological changes in lung at 20 mg/kg, ip for 4 weeks administered for 5 days consecutively and 2 days without treatment on every week by H and E staining based analysis", "type": "organism-based", "settings": "in vivo, 672 h"}, "[26]": {"system": "PANC-1", "experiment": "Induction of cell cycle arrest in human PANC-1 cells assessed as accumulation at S phase at 0.5 uM incubated for 24 hrs by PI staining based flow cytometry (reference value: 38.94 %)", "type": "functional"}, "[27]": {"system": "PANC-1", "experiment": "Anti-migration activity in human PANC-1 cells at 1 uM in presence of OL incubated for 24 hrs by wound healing assay", "type": "functional, cell-based"}, "[28]": {"system": "PANC-1", "experiment": "Induction of apoptosis in human PANC-1 cells assessed as viable cells at 0.25 uM incubated for 48 hrs by Annexin V-FITC/PI staining based flow cytometry (reference value: 91.64 %)", "type": "functional", "settings": "read-out: Activity"}, "[29]": {"system": "PANC-1", "experiment": "Induction of apoptosis in human PANC-1 cells assessed as early apoptotic cells at 0.12 uM incubated for 48 hrs by Annexin V-FITC/PI staining based flow cytometry (reference value: 1.41 %)", "type": "functional"}, "[30]": {"experiment": "Toxicity in BALB/c mouse xenografted with human PANC-1 cells assessed as animal mortality at 20 mg/kg, ip for 4 weeks administered for 5 days consecutively and 2 days without treatment on every week in presence of OL", "type": "organism-based", "settings": "in vivo, 672 h"}, "[31]": {"system": "PANC-1", "experiment": "Induction of apoptosis in human PANC-1 cells assessed as necrotic cells at 1 uM incubated for 48 hrs in presence of OL by Annexin V-FITC/PI staining based flow cytometry (reference value: 3.09 %)", "type": "functional"}, "[32]": {"system": "PANC-1", "experiment": "Induction of apoptosis in human PANC-1 cells assessed as viable cells at 1 uM incubated for 48 hrs in presence of OL by Annexin V-FITC/PI staining based flow cytometry (reference value: 91.64 %)", "type": "functional", "settings": "read-out: Activity"}}, "note": "Calls of active or inactive are those of the source. No cut-off for these calls is given here.", "data": [{"smiles": "O=C1CCC(N2C(=O)c3cccc(NC(=O)CNCCCCCCCCCCC(=O)N4CCN(C(=O)c5cc(Cc6n[nH]c(=O)c7ccccc67)ccc5F)CC4)c3C2=O)C(=O)N1", "note": "(stereo not drawn)", "values": [{"measurement": "Activity", "setting": "[1]", "result": "Non-toxic"}, {"measurement": "viability at 2.5 µM", "setting": "[2]", "result": 88.9, "unit": "%"}, {"measurement": "Activity", "setting": "[3]", "result": "Active"}, {"measurement": "Activity", "setting": "[4]", "result": 3.89, "unit": "%"}, {"measurement": "inhibition", "setting": "[5]", "result": "Active"}, {"measurement": "Activity", "setting": "[6]", "result": 13.63, "unit": "%"}, {"measurement": "Activity", "setting": "[7]", "result": 44.14, "unit": "%"}, {"measurement": "Emax", "setting": "[8]", "result": "> 95", "unit": "%"}, {"measurement": "Activity", "setting": "[9]", "result": 42.94, "unit": "%"}, {"measurement": "Activity", "setting": "[10]", "result": "Active"}, {"measurement": "Activity", "setting": "[11]", "result": 4.28, "unit": "%"}, {"measurement": "Activity", "setting": "[12]", "result": "Active"}, {"measurement": "Activity", "setting": "[13]", "result": 40.91, "unit": "%"}, {"measurement": "Activity", "setting": "[14]", "result": "Non-toxic"}, {"measurement": "Activity", "setting": "[15]", "result": 3.9, "unit": "%"}, {"measurement": "Activity", "setting": "[16]", "result": "Active"}, {"measurement": "Activity", "setting": "[17]", "result": "Non-toxic"}, {"measurement": "Activity", "setting": "[18]", "result": 5, "unit": "%"}, {"measurement": "inhibition", "setting": "[19]", "result": "Active"}, {"measurement": "Activity", "setting": "[20]", "result": 43.26, "unit": "%"}, {"measurement": "Activity", "setting": "[21]", "result": 15.94, "unit": "%"}, {"measurement": "inhibition", "setting": "[22]", "result": "Active"}, {"measurement": "viability at 2 µM", "setting": "[23]", "result": 64.3, "unit": "%"}, {"measurement": "Activity", "setting": "[24]", "result": 3.71, "unit": "%"}]}, {"smiles": "Cc1sc2c(c1C)C(c1ccc(Cl)cc1)=N[C@@H](CC(=O)OC(C)(C)C)c1nnc(C)n1-2", "values": [{"measurement": "Activity", "setting": "[25]", "result": "Non-toxic"}, {"measurement": "Activity", "setting": "[26]", "result": 35.66, "unit": "%"}, {"measurement": "Activity", "setting": "[27]", "result": "Active"}, {"measurement": "viability at 0.25 µM", "setting": "[28]", "result": 89.4, "unit": "%"}, {"measurement": "Activity", "setting": "[29]", "result": 2.83, "unit": "%"}, {"measurement": "Activity", "setting": "[30]", "result": "Non-toxic"}, {"measurement": "Activity", "setting": "[31]", "result": 4.77, "unit": "%"}, {"measurement": "viability at 1 µM", "setting": "[32]", "result": 68.3, "unit": "%"}]}, {"smiles": "O=C(c1cc(Cc2n[nH]c(=O)c3ccccc23)ccc1F)N1CCN(C(=O)C2CC2)CC1", "note": "[OLAPARIB]", "values": [{"measurement": "Activity", "setting": "[1]", "result": "Non-toxic"}, {"measurement": "viability at 2.5 µM", "setting": "[2]", "result": 89.2, "unit": "%"}, {"measurement": "Activity", "setting": "[4]", "result": 4.21, "unit": "%"}, {"measurement": "inhibition", "setting": "[5]", "result": "Active"}, {"measurement": "Activity", "setting": "[6]", "result": 15.24, "unit": "%"}, {"measurement": "Activity", "setting": "[7]", "result": 42.54, "unit": "%"}, {"measurement": "Activity", "setting": "[9]", "result": 41, "unit": "%"}, {"measurement": "Activity", "setting": "[10]", "result": "Active"}, {"measurement": "Activity", "setting": "[11]", "result": 2.91, "unit": "%"}, {"measurement": "Activity", "setting": "[12]", "result": "Active"}, {"measurement": "Activity", "setting": "[13]", "result": 44.95, "unit": "%"}, {"measurement": "Activity", "setting": "[14]", "result": "Non-toxic"}, {"measurement": "Activity", "setting": "[15]", "result": 2.25, "unit": "%"}, {"measurement": "Activity", "setting": "[16]", "result": "Active"}, {"measurement": "Activity", "setting": "[17]", "result": "Non-toxic"}, {"measurement": "Activity", "setting": "[18]", "result": 4.77, "unit": "%"}, {"measurement": "inhibition", "setting": "[19]", "result": "Active"}, {"measurement": "Activity", "setting": "[20]", "result": 41.49, "unit": "%"}, {"measurement": "Activity", "setting": "[21]", "result": 19.74, "unit": "%"}, {"measurement": "viability at 2 µM", "setting": "[23]", "result": 68.3, "unit": "%"}, {"measurement": "Activity", "setting": "[24]", "result": 3.98, "unit": "%"}]}]}
